Assay results as given in patent US4053615A, “Phthalimidopiperidines and anti-convulsant compositions thereof” (John Wyeth & Brother Limited, priority 1972, dated 1977).

What was measured:
[1] = system: clonic and tonic convulsions induced by pentylenetetrazole; experiment: Procedure A: anti-pentylenetetrazole activity; type: in vivo; set-up: key to Activity class, Procedure A: INACTIVE: A compound is regarded as inactive in either one of the two procedures if the ED50 of the compound in the test procedure is greater than 400 mg/kg; conditions: mice, p.o.; for ED50: Mus musculus, po, 1 h, challenge one hour later with pentylenetetrazole 125 mg/kg i.p., read-out: ED50 (against convulsions), Procedure A
Method: ANTI-PENTYLENETETRAZOLE ACTIVITY
Compounds at a number of dose levels are administered p.o. to groups of six mice (3 males and 3 females). One hour later the animals are challenged with pentylenetetrazole (125mg/kg i.p.). The incidence of clonic and tonic convulsions and deaths is observed for one-half hour. Protection against convulsions and death is determined by comparison with controls run simultaneously. An ED50 against convulsions is calculated from probit-log dose curves.

[2] = system: blood platelet aggregation; experiment: Inhibition of blood platelet aggregation
Anti-arrhythmic activity = type: in vivo; conditions: when tested on warm blooded animals
[3] = system: tonic extensor seizures (maximal electroshock); experiment: Procedure B: maximal electroshock seizures (MES); type: in vivo; set-up: key to Activity class, Procedure B: INACTIVE: A compound is regarded as inactive in either one of the two procedures if the ED50 of the compound in the test procedure is greater than 400 mg/kg; conditions: mice, orally; for ED50: Mus musculus, po, 1 h, supramaximal electroshock one hour later (25 mA, 0.2 sec), read-out: ED50 (against convulsions), Procedure B
Method: MAXIMAL ELECTROSHOCK SEIZURES (MES)
Compounds at graded dose levels are administered orally to groups of six mice. One hour later, the animals are given a supramaximal electroshock through pinna electrodes (25 mA, 0.2 sec). Presence or absence of tonic extensor seizures as well as the number of deaths are recorded.
The percent protection against seizures is calculated. An ED50 against convulsions is calculated from probit-log dose curves.

[4] = Anti-inflammatory activity; type: in vivo; conditions: when tested on warm blooded animals

SMILES	ED50 [1]	further results
CCCCN1CCC(N2C(=O)c3ccc([N+](=O)[O-])cc3C2=O)CC1 [Example 12, 1-n-Butyl-4-(4-nitrophthalimido)piperidine]	6 to 15 mg/kg	
O=C1c2ccccc2C(=O)N1C1CCNCC1 [Example 2, 4-Phthalimido-piperidine]		inhibition of blood platelet aggregation [2]: active as an inhibitor of blood platelet aggregation
CCN1CCCC(N2C(=O)c3ccccc3C2=O)C1 (stereo not shown) [Example 3, 1-Ethyl-3-phthalimido-piperidine]	51 to 100 mg/kg	anti-arrhythmic activity (Anti-arrhythmic activity): anti-arrhythmic activity is shown; ED50 [3]: 31 to 50 mg/kg
Nc1ccc2c(c1)C(=O)N(C1CCN(Cc3ccccc3)CC1)C2=O [Example 16, 4-(4-Aminophthalimido)-1-benzylpiperidine]	6 to 15 mg/kg	
O=C1c2ccc([N+](=O)[O-])cc2C(=O)N1C1CCN(Cc2ccccc2)CC1 [Example 15, 1-Benzyl-4-(4-nitrophthalimido)piperidine]	6 to 15 mg/kg	
CCN1CCCC(N2C(=O)c3ccc([N+](=O)[O-])cc3C2=O)C1 (stereo not shown) [Example 4, 1-Ethyl-3-(4-nitrophthalimido)piperidine]	6 to 15 mg/kg	anti-arrhythmic activity (Anti-arrhythmic activity): anti-arrhythmic activity is shown
CCN1CCCC(N2C(=O)c3ccc(N)cc3C2=O)C1 (stereo not shown) [Example 6, 3-(4-Aminophthalimido)-1-ethylpiperidine]	6 to 15 mg/kg	
O=C1c2ccccc2C(=O)N1C1CCN(Cc2ccccc2)CC1 [Example 1, 1-Benzyl-4-phthalimido-piperidine]		anti-inflammatory activity [4]: Anti-inflammatory activity is shown
CCN1CCC(N2C(=O)c3ccccc3C2=O)C1 (stereo not shown) [1-ethyl-3-phthalimido-pyrrolidine, 1-ethyl-3-phthalimidopyrrolidine, reference compound]	> 400 mg/kg	ED50 [3]: > 400 mg/kg; Activity class, Procedure B ([3]; maximal electroshock): INACTIVE; Activity class, Procedure A ([1]; pentylenetetrazole challenge): INACTIVE
CCCCN1CCC(N2C(=O)c3ccc(N)cc3C2=O)CC1 [Example 13, 4-(4-Aminophthalimido)-1-n-butylpiperidine]	6 to 15 mg/kg	
